Experimental data published in the kinase profiling compilation of Christmann-Franck et al. (2016).

Legend:
Assay in all cases: KINOMEscan competition binding
Details in all cases: compound 10.0 µM
STK16 (human) = STK16 (human) (UniProt O75716)
HUNK (human) = HUNK (human) (UniProt P57058)
PRKD2 (human) = PRKD2 (human) (UniProt Q9BZL6)
NEK9 (human) = NEK9 (human) (UniProt Q8TD19)
EPHB6 (human) = EPHB6 (human) (UniProt O15197)
DCLK3 (human) = DCLK3 (human) (UniProt Q9C098)
TESK1 (human) = TESK1 (human) (UniProt Q15569)
MAP3K12 (human) = MAP3K12 (human) (UniProt Q12852)
MST4 (human) = MST4 (human) (UniProt Q9P289)
[1] = biological target: TYK2 JH1 catalytic (human) (UniProt P29597)
LRRK2 (human) = LRRK2 (human) (UniProt Q5S007)
PIP5K1A (human) = PIP5K1A (human) (UniProt Q99755)
Sequence of PIP5K1A (human) (Q99755 whole entry, looked up): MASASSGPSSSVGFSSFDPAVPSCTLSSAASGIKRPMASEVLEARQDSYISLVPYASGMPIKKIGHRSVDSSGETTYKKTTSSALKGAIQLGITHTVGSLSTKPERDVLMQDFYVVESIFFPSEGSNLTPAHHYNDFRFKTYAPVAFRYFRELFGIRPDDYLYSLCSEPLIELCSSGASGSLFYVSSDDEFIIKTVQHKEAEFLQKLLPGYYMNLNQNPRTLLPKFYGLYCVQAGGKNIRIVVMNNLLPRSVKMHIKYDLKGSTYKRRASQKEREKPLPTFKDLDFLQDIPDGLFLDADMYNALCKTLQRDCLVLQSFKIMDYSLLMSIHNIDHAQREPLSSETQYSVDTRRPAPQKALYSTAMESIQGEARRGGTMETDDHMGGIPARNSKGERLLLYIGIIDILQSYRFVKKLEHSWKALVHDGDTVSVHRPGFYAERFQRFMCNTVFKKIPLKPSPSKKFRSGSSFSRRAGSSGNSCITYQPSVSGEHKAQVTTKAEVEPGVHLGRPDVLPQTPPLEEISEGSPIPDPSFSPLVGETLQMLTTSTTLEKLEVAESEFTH

ACVR2B (human) = ACVR2B (human) (UniProt Q13705)
MAPK10 (human) = MAPK10 (human) (UniProt P53779)
CLK1 (human) = CLK1 (human) (UniProt P49759)
STK32A (human) = STK32A (human) (UniProt Q8WU08)
Sequence of STK32A (human) (Q8WU08 whole entry, looked up): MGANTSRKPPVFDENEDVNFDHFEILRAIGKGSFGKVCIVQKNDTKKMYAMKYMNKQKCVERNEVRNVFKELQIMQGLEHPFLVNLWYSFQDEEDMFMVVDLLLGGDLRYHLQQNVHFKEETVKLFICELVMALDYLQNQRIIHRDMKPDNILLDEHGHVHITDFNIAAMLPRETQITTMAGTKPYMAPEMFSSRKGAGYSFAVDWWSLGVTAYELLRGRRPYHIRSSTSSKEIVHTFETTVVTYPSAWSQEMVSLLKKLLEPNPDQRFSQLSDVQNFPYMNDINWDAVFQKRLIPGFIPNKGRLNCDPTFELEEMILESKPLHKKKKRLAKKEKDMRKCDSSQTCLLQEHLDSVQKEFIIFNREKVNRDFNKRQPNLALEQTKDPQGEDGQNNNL

MAP4K5 (human) = MAP4K5 (human) (UniProt Q9Y4K4)
ALK (human) = ALK (human) (UniProt Q9UM73)
Sequence of ALK (human) (Q9UM73 whole entry, looked up): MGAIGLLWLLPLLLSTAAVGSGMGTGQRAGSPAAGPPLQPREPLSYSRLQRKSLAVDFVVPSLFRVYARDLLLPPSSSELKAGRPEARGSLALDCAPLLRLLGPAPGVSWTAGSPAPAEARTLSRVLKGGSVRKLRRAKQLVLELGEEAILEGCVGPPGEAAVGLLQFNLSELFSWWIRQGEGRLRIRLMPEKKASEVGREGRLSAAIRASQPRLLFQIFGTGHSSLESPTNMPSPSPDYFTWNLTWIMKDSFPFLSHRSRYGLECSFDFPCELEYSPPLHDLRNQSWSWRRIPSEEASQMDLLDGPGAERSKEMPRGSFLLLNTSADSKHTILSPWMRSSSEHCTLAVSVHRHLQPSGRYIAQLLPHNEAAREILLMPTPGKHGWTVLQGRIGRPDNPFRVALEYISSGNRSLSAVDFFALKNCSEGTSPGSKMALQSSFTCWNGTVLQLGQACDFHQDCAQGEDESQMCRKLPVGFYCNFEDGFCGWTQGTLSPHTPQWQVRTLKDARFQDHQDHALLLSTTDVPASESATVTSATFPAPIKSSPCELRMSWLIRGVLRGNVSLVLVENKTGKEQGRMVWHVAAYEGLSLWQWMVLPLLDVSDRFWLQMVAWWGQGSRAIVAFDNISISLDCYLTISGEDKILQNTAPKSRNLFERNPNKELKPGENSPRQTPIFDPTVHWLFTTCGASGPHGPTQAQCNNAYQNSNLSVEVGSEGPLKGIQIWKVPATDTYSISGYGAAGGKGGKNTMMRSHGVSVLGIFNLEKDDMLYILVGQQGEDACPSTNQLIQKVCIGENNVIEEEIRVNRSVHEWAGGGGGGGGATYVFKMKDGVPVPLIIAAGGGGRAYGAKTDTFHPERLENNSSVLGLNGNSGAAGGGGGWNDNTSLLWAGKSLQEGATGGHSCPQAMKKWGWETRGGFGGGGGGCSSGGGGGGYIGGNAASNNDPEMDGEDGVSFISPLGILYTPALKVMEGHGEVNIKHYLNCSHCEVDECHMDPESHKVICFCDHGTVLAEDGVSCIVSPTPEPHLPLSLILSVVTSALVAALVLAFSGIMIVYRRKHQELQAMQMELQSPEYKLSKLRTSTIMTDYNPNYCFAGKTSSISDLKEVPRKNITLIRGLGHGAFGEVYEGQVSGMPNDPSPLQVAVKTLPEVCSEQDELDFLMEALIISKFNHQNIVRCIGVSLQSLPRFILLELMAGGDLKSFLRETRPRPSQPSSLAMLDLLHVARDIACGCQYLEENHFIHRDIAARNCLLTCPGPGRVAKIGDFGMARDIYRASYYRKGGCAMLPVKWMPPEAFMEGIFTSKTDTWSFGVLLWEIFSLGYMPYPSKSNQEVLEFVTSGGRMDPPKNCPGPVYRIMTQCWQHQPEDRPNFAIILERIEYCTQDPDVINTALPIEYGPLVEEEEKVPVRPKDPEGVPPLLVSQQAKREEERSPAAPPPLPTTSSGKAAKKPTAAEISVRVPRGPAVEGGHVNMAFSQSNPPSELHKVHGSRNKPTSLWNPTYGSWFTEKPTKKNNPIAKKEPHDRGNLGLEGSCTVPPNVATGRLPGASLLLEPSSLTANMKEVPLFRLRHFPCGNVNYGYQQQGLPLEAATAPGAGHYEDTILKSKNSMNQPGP

RIPK2 (human) = RIPK2 (human) (UniProt O43353)
CDK3 (human) = CDK3 (human) (UniProt Q00526)
Sequence of CDK3 (human) (Q00526 whole entry, looked up): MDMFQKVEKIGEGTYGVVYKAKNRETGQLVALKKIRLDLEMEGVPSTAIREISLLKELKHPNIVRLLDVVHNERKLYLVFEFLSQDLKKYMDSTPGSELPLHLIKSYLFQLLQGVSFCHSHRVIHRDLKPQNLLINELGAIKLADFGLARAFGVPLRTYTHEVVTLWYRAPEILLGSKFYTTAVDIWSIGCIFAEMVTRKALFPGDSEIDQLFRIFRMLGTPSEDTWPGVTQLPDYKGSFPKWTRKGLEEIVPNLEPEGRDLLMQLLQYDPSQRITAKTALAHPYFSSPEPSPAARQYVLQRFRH

PIP4K2B (human) = PIP4K2B (human) (UniProt P78356)
EPHA8 (human) = EPHA8 (human) (UniProt P29322)
EPHB2 (human) = EPHB2 (human) (UniProt P29323)
Sequence of EPHB2 (human) (P29323 whole entry, looked up): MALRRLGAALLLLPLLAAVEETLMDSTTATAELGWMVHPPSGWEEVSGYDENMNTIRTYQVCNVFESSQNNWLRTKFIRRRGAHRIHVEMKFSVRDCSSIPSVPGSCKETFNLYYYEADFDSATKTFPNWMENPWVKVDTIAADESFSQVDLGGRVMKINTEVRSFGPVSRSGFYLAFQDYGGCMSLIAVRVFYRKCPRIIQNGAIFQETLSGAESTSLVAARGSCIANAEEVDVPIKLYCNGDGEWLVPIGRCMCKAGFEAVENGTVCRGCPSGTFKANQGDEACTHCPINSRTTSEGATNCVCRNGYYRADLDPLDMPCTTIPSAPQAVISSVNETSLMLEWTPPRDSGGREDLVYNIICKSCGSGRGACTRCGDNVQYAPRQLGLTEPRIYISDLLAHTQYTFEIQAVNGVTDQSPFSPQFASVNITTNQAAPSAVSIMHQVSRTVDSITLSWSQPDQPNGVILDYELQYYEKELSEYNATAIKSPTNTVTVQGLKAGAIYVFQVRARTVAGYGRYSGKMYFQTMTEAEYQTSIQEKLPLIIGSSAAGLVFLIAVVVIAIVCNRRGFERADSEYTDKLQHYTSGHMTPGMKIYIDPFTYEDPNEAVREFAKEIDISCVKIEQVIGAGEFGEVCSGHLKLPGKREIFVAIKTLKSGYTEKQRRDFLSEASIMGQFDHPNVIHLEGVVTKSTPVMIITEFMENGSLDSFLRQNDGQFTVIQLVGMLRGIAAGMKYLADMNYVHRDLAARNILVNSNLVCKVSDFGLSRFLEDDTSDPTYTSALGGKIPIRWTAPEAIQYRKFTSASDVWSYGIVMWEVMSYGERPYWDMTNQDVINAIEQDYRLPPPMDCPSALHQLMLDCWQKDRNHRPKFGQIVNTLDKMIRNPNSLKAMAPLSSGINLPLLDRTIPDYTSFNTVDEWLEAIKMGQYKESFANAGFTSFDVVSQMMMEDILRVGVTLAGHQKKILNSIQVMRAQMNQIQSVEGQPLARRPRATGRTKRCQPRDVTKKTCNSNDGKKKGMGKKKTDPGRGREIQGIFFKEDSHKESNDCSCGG

PLK3 (human) = PLK3 (human) (UniProt Q9H4B4)
Sequence of PLK3 (human) (Q9H4B4 whole entry, looked up): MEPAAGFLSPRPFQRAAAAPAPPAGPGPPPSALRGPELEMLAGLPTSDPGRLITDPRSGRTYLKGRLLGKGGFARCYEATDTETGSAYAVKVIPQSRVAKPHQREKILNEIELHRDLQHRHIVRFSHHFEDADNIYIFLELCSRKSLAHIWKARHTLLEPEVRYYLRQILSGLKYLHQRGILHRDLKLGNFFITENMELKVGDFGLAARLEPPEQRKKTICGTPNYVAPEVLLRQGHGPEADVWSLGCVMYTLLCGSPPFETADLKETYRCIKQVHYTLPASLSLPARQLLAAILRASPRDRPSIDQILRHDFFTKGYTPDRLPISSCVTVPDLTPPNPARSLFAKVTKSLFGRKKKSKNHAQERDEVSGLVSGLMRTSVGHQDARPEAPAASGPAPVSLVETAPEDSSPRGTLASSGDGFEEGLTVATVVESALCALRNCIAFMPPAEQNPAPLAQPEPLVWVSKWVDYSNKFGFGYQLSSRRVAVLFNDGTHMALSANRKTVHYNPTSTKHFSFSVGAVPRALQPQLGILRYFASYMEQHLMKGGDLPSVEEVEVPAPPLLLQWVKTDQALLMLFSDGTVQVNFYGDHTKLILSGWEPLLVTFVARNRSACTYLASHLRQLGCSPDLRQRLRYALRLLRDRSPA

[2] = system: EGFR (human), P00533 [T790M/L858R]
CSNK1A1L (human) = CSNK1A1L (human) (UniProt Q8N752)
PAK4 (human) = PAK4 (human) (UniProt O96013)
PRKD1 (human) = PRKD1 (human) (UniProt Q15139)
DAPK2 (human) = DAPK2 (human) (UniProt Q9UIK4)
PRKAA1 (human) = PRKAA1 (human) (UniProt Q13131)
BMPR2 (human) = BMPR2 (human) (UniProt Q13873)
ICK (human) = ICK (human) (UniProt Q9UPZ9)
TBK1 (human) = TBK1 (human) (UniProt Q9UHD2)
SGK110 (human) = SGK110 (human) (UniProt P0C264)
CDKL1 (human) = CDKL1 (human) (UniProt Q00532)
Sequence of CDKL1 (human) (Q00532 whole entry, looked up): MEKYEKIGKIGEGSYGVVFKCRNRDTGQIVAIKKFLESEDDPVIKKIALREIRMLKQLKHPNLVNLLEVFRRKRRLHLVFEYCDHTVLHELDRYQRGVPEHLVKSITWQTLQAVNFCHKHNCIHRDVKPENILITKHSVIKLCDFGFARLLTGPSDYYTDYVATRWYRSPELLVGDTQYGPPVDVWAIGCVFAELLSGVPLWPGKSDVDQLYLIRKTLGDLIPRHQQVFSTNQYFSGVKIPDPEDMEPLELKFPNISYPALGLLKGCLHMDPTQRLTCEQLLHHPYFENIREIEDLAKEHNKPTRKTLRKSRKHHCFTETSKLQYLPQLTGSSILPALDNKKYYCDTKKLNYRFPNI

MAPK12 (human) = MAPK12 (human) (UniProt P53778)
FGFR3 (human) = FGFR3 (human) (UniProt P22607)
HIPK3 (human) = HIPK3 (human) (UniProt Q9H422)
MAP3K13 (human) = MAP3K13 (human) (UniProt O43283)
RPS6KA3 KD1 (human) = RPS6KA3 KD1 (human) (UniProt P51812)

Row | SMILES | kinase still bound, per cent of control (STK16 (human)) [%] | kinase still bound, per cent of control (HUNK (human)) [%] | kinase still bound, per cent of control (PRKD2 (human)) [%] | kinase still bound, per cent of control (NEK9 (human)) [%] | kinase still bound, per cent of control (EPHB6 (human)) [%] | kinase still bound, per cent of control (DCLK3 (human)) [%] | kinase still bound, per cent of control (TESK1 (human)) [%] | kinase still bound, per cent of control (MAP3K12 (human)) [%] | kinase still bound, per cent of control (MST4 (human)) [%] | kinase still bound, per cent of control [1] [%] | kinase still bound, per cent of control (LRRK2 (human)) [%] | kinase still bound, per cent of control (PIP5K1A (human)) [%] | kinase still bound, per cent of control (ACVR2B (human)) [%] | kinase still bound, per cent of control (MAPK10 (human)) [%] | kinase still bound, per cent of control (CLK1 (human)) [%] | kinase still bound, per cent of control (STK32A (human)) [%] | kinase still bound, per cent of control (MAP4K5 (human)) [%] | kinase still bound, per cent of control (ALK (human)) [%] | kinase still bound, per cent of control (RIPK2 (human)) [%] | kinase still bound, per cent of control (CDK3 (human)) [%] | further results
1 | COc1ccc(N(C(=O)Oc2c(C)cccc2C)c2ccnc(Nc3ccc(N4CCN(C)CC4)cc3)n2)c(OC)c1 | 15 | 9 | 6.4 | 100 | 1.2 | 100 | 0 | 73 | 33 | 45 | 78 | 0.45 | 1.8 | 37 | 84 | 8.2 | 0.7 | 0.35 | 0 | 100 | kinase still bound, per cent of control (PIP4K2B (human)): 5.4%; kinase still bound, per cent of control (EPHA8 (human)): 0.2%; kinase still bound, per cent of control (EPHB2 (human)): 0%; kinase still bound, per cent of control (PLK3 (human)): 100%; kinase still bound, per cent of control [2]: 14%; kinase still bound, per cent of control (CSNK1A1L (human)): 100%; kinase still bound, per cent of control (PAK4 (human)): 97%; kinase still bound, per cent of control (PRKD1 (human)): 9.3%; kinase still bound, per cent of control (DAPK2 (human)): 100%; kinase still bound, per cent of control (PRKAA1 (human)): 23%; kinase still bound, per cent of control (BMPR2 (human)): 0.2%; kinase still bound, per cent of control (ICK (human)): 100%; kinase still bound, per cent of control (TBK1 (human)): 74%; kinase still bound, per cent of control (SGK110 (human)): 44%; kinase still bound, per cent of control (CDKL1 (human)): 100%; kinase still bound, per cent of control (MAPK12 (human)): 75%; kinase still bound, per cent of control (FGFR3 (human)): 1%; kinase still bound, per cent of control (HIPK3 (human)): 91%; kinase still bound, per cent of control (MAP3K13 (human)): 70%; kinase still bound, per cent of control (RPS6KA3 KD1 (human)): 37%
2 | O=C(Nc1cccc(Nc2ncc(Br)c(NCCc3cnc[nH]3)n2)c1)N1CCCC1 | 0.55 | 73 | 1.7 | 4.6 | 0.2 | 48 | 99 | 21 | 0.4 | 0 | 11 | 1 | 4.9 | 0.1 | 13 | 51 | 9.6 | 14 | 58 | 62 | kinase still bound, per cent of control (PIP4K2B (human)): 0.55%; kinase still bound, per cent of control (EPHA8 (human)): 94%; kinase still bound, per cent of control (EPHB2 (human)): 100%; kinase still bound, per cent of control (PLK3 (human)): 20%; kinase still bound, per cent of control [2]: 26%; kinase still bound, per cent of control (CSNK1A1L (human)): 32%; kinase still bound, per cent of control (PAK4 (human)): 4%; kinase still bound, per cent of control (PRKD1 (human)): 0.65%; kinase still bound, per cent of control (DAPK2 (human)): 22%; kinase still bound, per cent of control (PRKAA1 (human)): 0.35%; kinase still bound, per cent of control (BMPR2 (human)): 13%; kinase still bound, per cent of control (ICK (human)): 10%; kinase still bound, per cent of control (TBK1 (human)): 0.7%; kinase still bound, per cent of control (SGK110 (human)): 0.95%; kinase still bound, per cent of control (CDKL1 (human)): 1.8%; kinase still bound, per cent of control (MAPK12 (human)): 65%; kinase still bound, per cent of control (FGFR3 (human)): 1%; kinase still bound, per cent of control (HIPK3 (human)): 3.7%; kinase still bound, per cent of control (MAP3K13 (human)): 9.9%; kinase still bound, per cent of control (RPS6KA3 KD1 (human)): 0.5%
